Test results as given in paper PMC9174238, “pH- and concentration-dependent supramolecular assembly of a fungal defensin plectasin variant into helical non-amyloid fibrils” (Nature Communications, 2022).
Where a SMILES comes first, the peptide text is derived from it. Bridges are numbered along the chain shown (N, C = ends).

What was measured:
female NMRI mice = details: single intravenous bolus 50 mg/kg, observed 4 days, previously performed, ref ICAAC 2006 poster F2-1166; cited from earlier work
Description: page 11: homeostatic conditions.

[1] = pKa by 2D 1H-1H TOCSY NMR pH titration; format: physicochemical; details: imidazole ring protons, 50 mM phosphate buffer, 298 K
Description: 2D ^1H–^1H TOCSY NMR spectra were acquired by sampling the FID for 117 and 14.5 milliseconds by acquiring 1024 × 128 complex data points in the direct and indirect dimensions, respectively. For these ^1H–^1H TOCSY NMR experiments, 16 transients were acquired with an inter-scan relaxation delay of 1 second. All NMR spectra were processed with ample zero filling in all spectral dimensions in Bruker Topspin 3.5 pl7 software and integrated into the same software. Data were plotted in proFit 7 (Quantum Soft). Titration curves were fitted to the Henderson-Hasselbalch equation in proFit 7 as δobs=(δA+10^pKa−pH*δHA)/(1+10^pKa−pH), where δobs is the measured chemical shift, δA is the chemical shift of the deprotonated form and δHA is the chemical shift of the protonated form. The pH of the sample was determined after the measurement.

[2] = cited from earlier work
Description: The structure of plectasin is stabilized by three disulfide bridges (C4-C30; C15-C37; C19-C39), which is typical for this type of defensins and leads to high confor ...

[3] = Thioflavin T fluorescence measurements; format: physicochemical; details: Gly-HCl pH 2.5; dissolved; c=2 mg/mL; excitation 440±10 nm, emission 490±10 nm
Description: Plectasin stock solutions were dialyzed against 10 mM acetate buffer pH 5.5. A final concentration of 2 mg/mL (450 µM) was obtained by dilution with the dialysis buffer and ThT was added to a final concentration of 20 µM. The fluorescence was monitored after each cycle at 490 ± 10 nm with excitation at 440 ± 10 nm with a gain of 1000 using FLOUstar Omega multi-mode microplate reader (BMG Labtech). Omega software was used to control the plate reader and export the data. Insulin was fibrillated at 40 °C with agitation (600 rpm) for 150 s every 5 min[79]. Additionally, the fluorescence of a sample containing insulin fibrils at a protein concentration of 2 mg/mL was compared to freshly dialyzed plectasin in 10 mM acetate buffer pH 3.5 and pH 5.5 and a sample diluted into 10 mM acetate buffer pH 5.5 and 10 mM phosphate buffer pH 6.5, equilibrated for 12 h was compared (end-point measurement).

[4] = target: plectasin variant D9S Q14K V36L (PPI42); assay: dynamic light scattering; pH series, phosphate buffer above pH 6, 2 mg/mL (450 µM), 25 °C
His18 (position 18, …) = assay: NMR; details: 298 K; not stated (50 mM buffer; no added salt mentioned); 50 mM phosphate according to the Fig. 6b caption. Methods: 50 mM phosphate or 50 mM acetate, with the stock dialysed against 10 mM acetate pH 3.5 and diluted into the final buffer.; Folded, disulfide-intact soluble monomer at 250 µM total protein; fibrils forming at higher pH are NMR-invisible
His16 (position 16, …) = assay: NMR; details: 298 K; not stated (50 mM buffer; no added salt mentioned); 50 mM phosphate according to the Fig. 6b caption. Methods: 50 mM phosphate or 50 mM acetate, with the stock dialysed against 10 mM acetate pH 3.5 and diluted into the final buffer.; Folded, disulfide-intact soluble monomer at 250 µM total protein; fibrils forming at higher pH are NMR-invisible

Q: Which results are given for `CC[C@H](C)[C@@H]1NC(=O)[C@H](CO)NC(=O)[C@H](CCCCN)NC(=O)[C@@H]2CSSC[C@@H](C(=O)N[C@@H](Cc3ccc(O)cc3)C(=O)O)NC(=O)[C@H](CCCCN)NC(=O)[C@@H]3CSSC[C@H](NC(=O)[C@H](CCCCN)NC(=O)[C@H](CCSC)NC(=O)[C@H](CC(=O)O)NC(=O)[C@H](CC(=O)O)NC(=O)[C@H](CCC(=O)O)NC(=O)[C@H](CO)NC(=O)[C@H](Cc4c[nH]c5ccccc45)NC(=O)[C@@H]4CCCN4C(=O)CNC(=O)[C@H](CC(N)=O)NC(=O)[C@@H](NC(=O)CNC(=O)[C@H](Cc4ccccc4)NC(=O)CN)CSSC[C@H](NC(=O)[C@H](Cc4ccc(O)cc4)NC(=O)CNC(=O)CNC(=O)[C@H](CCCCN)NC(=O)[C@H](Cc4ccc(O)cc4)NC(=O)CNC(=O)[C@H](CCCCN)NC1=O)C(=O)N[C@@H](C)C(=O)N[C@@H](CCCCN)C(=O)NCC(=O)NCC(=O)N[C@@H](Cc1ccccc1)C(=O)N[C@@H](CC(C)C)C(=O)N3)C(=O)N[C@@H](Cc1c[nH]cn1)C(=O)N[C@@H](CC(N)=O)C(=O)N[C@@H](Cc1c[nH]cn1)C(=O)N2` [PPI42] (H-GFGCNGPWSEDDMKCHNHCKSIKGYKGGYCAKGGFLCKCY-OH; disulfide 4-30, 15-37, 19-39)?
A: Maximum Tolerated Dose (MTD) (female NMRI mice): > 50 mg/kg; No Observed Adverse Effect Level (NOAEL) (female NMRI mice): > 50 mg/kg; pKa for (H16) [1]: 4.4; pKa for (H18) [1]: 6.4

Q: With `CC[C@H](C)[C@@H]1NC(=O)[C@H](CO)NC(=O)[C@H](CCCCN)NC(=O)[C@@H]2CSSC[C@@H](C(=O)N[C@@H](Cc3ccc(O)cc3)C(=O)O)NC(=O)[C@H](CCCCN)NC(=O)[C@@H]3CSSC[C@H](NC(=O)[C@H](CCC(N)=O)NC(=O)[C@H](CCSC)NC(=O)[C@H](CC(=O)O)NC(=O)[C@H](CC(=O)O)NC(=O)[C@H](CCC(=O)O)NC(=O)[C@H](CC(=O)O)NC(=O)[C@H](Cc4c[nH]c5ccccc45)NC(=O)[C@@H]4CCCN4C(=O)CNC(=O)[C@H](CC(N)=O)NC(=O)[C@@H](NC(=O)CNC(=O)[C@H](Cc4ccccc4)NC(=O)CN)CSSC[C@H](NC(=O)[C@H](Cc4ccc(O)cc4)NC(=O)CNC(=O)CNC(=O)[C@H](CCCCN)NC(=O)[C@H](Cc4ccc(O)cc4)NC(=O)CNC(=O)[C@H](CCCCN)NC1=O)C(=O)N[C@@H](C)C(=O)N[C@@H](CCCCN)C(=O)NCC(=O)NCC(=O)N[C@@H](Cc1ccccc1)C(=O)N[C@@H](C(C)C)C(=O)N3)C(=O)N[C@@H](Cc1c[nH]cn1)C(=O)N[C@@H](CC(N)=O)C(=O)N[C@@H](Cc1c[nH]cn1)C(=O)N2` [plectasin wildtype] as the molecule, how does the in vivo half-life [2] read?
A: long in vivo half-life

Q: What about the serum stability [2] of the same molecule?
A: high serum stability

Q: What about the toxicity [2] of the same molecule?
A: low toxicity

Q: With “Insulin: positive control known to form amyloid fibrils upon shaking at 40 °C” as the molecule, how does the “Thioflavin T fluorescence (490 nm), end-point” value [3] read?
A: 13428.8

Q: Which fraction of medium-sized oligomers and fibrils (% mass) [4] does the source give for “plectasin variant D9S Q14K V36L (PPI42) (peptide)” here?
A: < 2.5 % mass

Q: What does the source list for GFGCNGPWSEDDMKCHNHCKSIKGYKGGYCAKGGFLCKCY?
A: pKa (His18 (position 18, …)): around 6.4; pKa (His16 (position 16, …)): around 4.4
